Series [1] concerns AHR-regulated gene CYP1A1. Description: In vitro assay 3: AHR-regulated CYP1A1 expression in human cell line (U937, qPCR). In general terms: In qPCR the cycle at which signal appears reflects the starting amount.
The target in series [2] is T1, AHR (Homo sapiens, UniProt P35869).
T1 sequence (P35869 11-848): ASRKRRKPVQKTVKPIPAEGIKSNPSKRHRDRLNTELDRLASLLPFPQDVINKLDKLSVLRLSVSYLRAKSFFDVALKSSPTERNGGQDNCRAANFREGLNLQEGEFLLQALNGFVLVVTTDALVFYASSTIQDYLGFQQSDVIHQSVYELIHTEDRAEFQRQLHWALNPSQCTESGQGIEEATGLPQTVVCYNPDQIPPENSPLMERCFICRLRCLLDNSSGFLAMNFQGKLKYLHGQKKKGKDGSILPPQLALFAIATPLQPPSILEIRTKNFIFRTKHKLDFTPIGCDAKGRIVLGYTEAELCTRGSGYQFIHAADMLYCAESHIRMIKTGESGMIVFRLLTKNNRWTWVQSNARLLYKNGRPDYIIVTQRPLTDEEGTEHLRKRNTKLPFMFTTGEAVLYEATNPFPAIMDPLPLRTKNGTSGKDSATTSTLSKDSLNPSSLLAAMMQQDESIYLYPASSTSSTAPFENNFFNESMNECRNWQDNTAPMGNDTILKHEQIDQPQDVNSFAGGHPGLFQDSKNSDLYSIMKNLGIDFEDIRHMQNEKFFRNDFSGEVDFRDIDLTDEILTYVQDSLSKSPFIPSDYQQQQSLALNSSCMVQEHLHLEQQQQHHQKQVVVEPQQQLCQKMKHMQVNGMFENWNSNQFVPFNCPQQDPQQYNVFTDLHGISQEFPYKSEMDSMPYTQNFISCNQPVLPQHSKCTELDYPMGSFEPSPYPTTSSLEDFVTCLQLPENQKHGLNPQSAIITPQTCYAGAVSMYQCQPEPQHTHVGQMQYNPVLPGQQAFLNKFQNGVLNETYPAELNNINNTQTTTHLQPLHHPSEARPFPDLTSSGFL
Description: In vitro assay 1: antagonism in human cell line (transactivation assay, kynurenic acid prestimulated). Particulars: Assay 1: AHR-luc Hum Antagonism IC50 [M], 150 μM kynurenic acid, 20 hours, firefly luciferase.

In series [3] the target is T1, AHR. Description: In vitro assay 2: agonism in human cell line (transactivation assay).
[4] abbreviates: read-out: Assay 3: Hum CYP1A1 Antagonism IC50, U937 cells, 200 μM KA, 6 hours, qPCR.
Where [5] appears, read: Assay 2: AHR-luc Hum Agonism IC50 [M], no kynurenic acid, 20 hours, firefly luciferase.
[6] abbreviates: Homo sapiens, U-937, 6 h, read-out: Assay 3: Hum CYP1A1 Antagonism IC50 [M], U937 cells, 200 μM KA, 6 hours, qPCR.

For orientation: IC50 means the concentration at which inhibition is half-maximal.

Like-named read-outs stand apart in the source and are kept apart here.

Regarding `O=C(NCC(O)C(F)(F)F)c1cc(-c2ccc(OC(F)(F)F)cc2)nn(-c2cccc(F)c2)c1=O` (single isomer, unassigned) [Example 183, 2-(3-Fluorophenyl)-3-oxo-N-(3,3,3-trifluoro-2-hydroxypropyl)-6-[4-(trifluoromethoxy)phenyl]-2,3-dihydropyridazine-4-carboxamide], the values for the IC50 in series [1] (setting [4]), in series [2] and in series [3] (setting [5]) were 4.14e-08 M, 3.78e-08 M and over 2e-05 M, respectively.
On to `CC(CO)CNC(=O)c1cc(-c2ccc(C(F)(F)F)cc2)nn(-c2cccc(F)c2)c1=O` (racemic) [Example 245, 2-(3-Fluorophenyl)-N-[(2RS)-3-hydroxy-2-methylpropyl]-3-oxo-6-[4-(trifluoromethyl)phenyl]-2,3-dihydropyridazine-4-carboxamide], for which the IC50 in series [1] (setting [6]) is 5.44e-08 M; in series [2], 3.72e-08 M; in series [3] (setting [5]), over 2e-05 M.
Consider `O=C(N[C@H]1CCC[C@@H]1O)c1cc(-c2ccc(Cl)cc2)nn(-c2cccc(F)c2)c1=O` (single isomer, unassigned) [Example 124, 6-(4-Chlorophenyl)-2-(3-fluorophenyl)-N-(trans-2-hydroxycyclopentyl)-3-oxo-2,3-dihydropyridazine-4-carboxamide], for which the IC50 in series [1] (setting [6]) is 3.59e-08 M; in series [2] it was 3.65e-08 M; in series [3] (setting [5]), over 2e-05 M.
The corresponding values for `O=C(NC[C@H](O)CO)c1cc(-c2ccc(C(F)(F)F)cc2)nn(-c2cccc(F)c2)c1=O` [Example 264, (−)-N-[(2S)-2,3-Dihydroxypropyl]-2-(3-fluorophenyl)-3-oxo-6-[4-(trifluoromethyl)phenyl]-2,3-dihydropyridazine-4-carboxamide] are 8.01e-08 M, 7.05e-08 M and over 2e-05 M.
Take `O=C(N[C@H](CO)Cc1ccccc1)c1cc(-c2ccc(Cl)cc2)nn(-c2cccc(F)c2)c1=O` [Example 220, (−)-6-(4-Chlorophenyl)-2-(3-fluorophenyl)-N-[(2S)-1-hydroxy-3-phenylpropan-2-yl]-3-oxo-2,3-dihydropyridazine-4-carboxamide]: the IC50 was 6e-07 M in series [1] (setting [6]), 1.03e-07 M in series [2] and over 2e-05 M in series [3] (setting [5]).
Regarding `O=C(NC1(CO)CCC1)c1cc(-c2ccc(Cl)cc2)nn(-c2cccc(F)c2)c1=O` [Example 213, 6-(4-Chlorophenyl)-2-(3-fluorophenyl)-N-[1-(hydroxymethyl)cyclobutyl]-3-oxo-2,3-dihydropyridazine-4-carboxamide], the IC50 was 2.21e-07 M in series [1] (setting [6]), 8.72e-08 M in series [2] and over 2e-05 M in series [3] (setting [5]).
Regarding `O=C(NCCCO)c1cc(-c2ccc(Cl)cc2)nn(-c2cccc(F)c2)c1=O` [Example 189, 6-(4-Chlorophenyl)-2-(3-fluorophenyl)-N-(3-hydroxypropyl)-3-oxo-2,3-dihydropyridazine-4-carboxamide], the IC50 in series [1] (setting [6]) was 2e-06 M; in series [2], 1.86e-07 M; in series [3] (setting [5]), over 2e-05 M.
Consider `CC(NC(=O)c1cc(-c2ccc(Cl)cc2)nn(-c2cccc(F)c2)c1=O)C(O)C(F)(F)F` (stereo not drawn) [Example 218, Stereoisomer no. 1 of 6-(4-chlorophenyl)-2-(3-fluorophenyl)-3-oxo-N-(4,4,4-trifluoro-3-hydroxybutan-2-yl)-2,3-dihydropyridazine-4-carboxamide], for which the IC50 was 1.51e-07 M in series [1] (setting [6]); 6.88e-08 M in series [2]; over 2e-05 M in series [3] (read-out: Assay 2: AHR-luc Hum Agonism IC50, no kynurenic acid, 20 hours, firefly luciferase).
Turning to `CC(NC(=O)c1cc(-c2ccc(C(F)(F)F)cc2)nn(-c2cccc(F)c2)c1=O)C(O)C(F)(F)F` (single isomer, unassigned) [Example 270, Isomer no. 3 of 2-(3-fluorophenyl)-3-oxo-N-(4,4,4-trifluoro-3-hydroxybutan-2-yl)-6-[4-(trifluoromethyl)phenyl]-2,3-dihydropyridazine-4-carboxamide], the IC50 was 5.44e-09 M in series [1] (setting [4]), 6.12e-09 M in series [2] and over 2e-05 M in series [3] (setting [5]).
For `C[C@H](NC(=O)c1cc(-c2ccc(C(F)F)cc2)nn(-c2cccc(F)c2)c1=O)C(C)(C)O` [Example 383, 6-[4-(difluoromethyl)phenyl]-2-(3-fluorophenyl)-N-[(2S)-3-hydroxy-3-methylbutan-2-yl]-3-oxo-2,3-dihydropyridazine-4-carboxamide], the IC50 was 3.4e-08 M in series [1] (setting [6]), 2.1e-08 M in series [2] and over 2e-05 M in series [3] (setting [5]).
`CC(CCO)NC(=O)c1cc(-c2ccc(C(F)(F)F)cc2)nn(-c2cccc(F)c2)c1=O` (single isomer, unassigned; (+)) [Example 254, (+)-2-(3-Fluorophenyl)-N-(4-hydroxybutan-2-yl)-3-oxo-6-[4-(trifluoromethyl)phenyl]-2,3-dihydropyridazine-4-carboxamide]: the IC50 was 3.01e-08 M in series [1] (setting [4]), 1.1e-08 M in series [2] and over 2e-05 M in series [3] (setting [5]).
Regarding `O=C(NC(CO)C(F)(F)F)c1cc(-c2ccc(Cl)cc2)nn(-c2cccc(F)c2)c1=O` (stereo not drawn) [Example 97, 6-(4-Chlorophenyl)-2-(3-fluorophenyl)-3-oxo-N-(1,1,1-trifluoro-3-hydroxypropan-2-yl)-2,3-dihydropyridazine-4-carboxamide], the IC50 in series [1] (setting [6]) was 1.63e-08 M; in series [2] it was 1.5e-08 M; in series [3] (setting [5]) it was over 2e-05 M.
The corresponding values for `Cc1ccc(-c2cc(C(=O)N[C@H](CO)C(C)C)c(=O)n(-c3cccc(F)c3)n2)cc1` [Example 2, 2-(3-Fluorophenyl)-N-[(2S)-1-hydroxy-3-methylbutan-2-yl]-6-(4-methylphenyl)-3-oxo-2,3-dihydropyridazine-4-carboxamide] are 1.36e-08 M, 1.03e-08 M and over 2e-05 M.
In the case of `O=C(N[C@H]1CCC[C@@H]1O)c1cc(-c2ccc(Cl)cc2)nn(-c2cccc(F)c2)c1=O` [Example 115, 6-(4-Chlorophenyl)-2-(3-fluorophenyl)-N-[(1S,2S)-2-hydroxycyclopentyl]-3-oxo-2,3-dihydropyridazine-4-carboxamide], the results for the IC50 in series [1] (setting [6]), in series [2] and in series [3] (setting [5]) were 1.31e-08 M, 2.72e-08 M and over 2e-05 M, respectively.
Consider `O=C(NCC(O)C(F)(F)F)c1cc(-c2ccc(C(F)F)cc2)nn(-c2cccc(F)c2)c1=O` (single isomer, unassigned) [Example 95, 6-[4-(Difluoromethyl)phenyl]-2-(3-fluorophenyl)-3-oxo-N-(3,3,3-trifluoro-2-hydroxypropyl)-2,3-dihydropyridazine-4-carboxamide], for which the IC50 in series [1] (setting [4]) is 7.63e-09 M; in series [2], 6.77e-09 M; in series [3] (setting [5]), over 2e-05 M.
As for `C[C@@H](CO)NC(=O)c1cc(-c2ccc(C(F)(F)F)cc2)nn(-c2cccc(F)c2)c1=O` [Example 237, 2-(3-Fluorophenyl)-N-[(2S)-1-hydroxypropan-2-yl]-3-oxo-6-[4-(trifluoromethyl)phenyl]-2,3-dihydropyridazine-4-carboxamide], the results for the IC50 in series [1] (setting [6]), in series [2] and in series [3] (setting [5]) were 2.46e-08 M, 1.23e-08 M and over 2e-05 M, respectively.
As for `CC(NC(=O)c1cc(-c2ccc(C(F)(F)F)cc2)nn(-c2cccc(F)c2)c1=O)C(O)C(F)(F)F` (single isomer, unassigned) [Example 271, Isomer no. 4 of 2-(3-fluorophenyl)-3-oxo-N-(4,4,4-trifluoro-3-hydroxybutan-2-yl)-6-[4-(trifluoromethyl)phenyl]-2,3-dihydropyridazine-4-carboxamide], the results for the IC50 in series [1] (setting [4]), in series [2] and in series [3] (setting [5]) were 3.01e-08 M, 2.06e-08 M and over 2e-05 M, respectively.

Source of the values: patent publication US11040035B2, “3-oxo-2,6-diphenyl-2,3-dihydropyridazine-4-carboxamides” (BAYER PHARMA AKTIENGESELLSCHAFT, priority 2016, dated 2021).
